Laboratory results from US20250195521A1 (Revolution Medicines, Inc., priority 2020, published 2025).
Read-outs that look alike come from different tables or passages of the source.

Key:
KRAS WT = KRAS WT (Homo sapiens (Human), UniProt P01116+P62937); experiment: Ras-Raf disruption/FRET/MOA assay (BRAF RBD, Cyclophilin A); format: biochemical; conditions: read-out: KRAS WT FRET data IC50
In short: (§1)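 Ras-GMPPNP (12.5 nM), BRAF RBD (50 nM) and 25 μM Cyclophilin A were incubated with compound for 3 h at 25° C, then detected 1.5 h with anti-His Eu and anti-GST APC; IC50 values follow from the reduced TR-FRET ratio.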

KRAS G12V = KRAS G12V (Homo sapiens (Human), UniProt P01116+P62937, G12V); experiment: as above; format: biochemical; conditions: read-out: KRAS G12V FRET IC50
In short: as §1

KRAS G13D = KRAS G13D (Homo sapiens (Human), UniProt P01116+P62937, G13D); experiment: as above; format: biochemical; conditions: read-out: KRAS G13D FRET data IC50
In short: as §1

NRAS G12C = NRAS G12C (Homo sapiens (Human), UniProt P01111+P62937, G12C); experiment: as above; format: biochemical; conditions: read-out: NRAS G12C FRET data IC50
In short: as §1

KRAS G12C = KRAS G12C (Homo sapiens (Human), UniProt P01116+P62937, G12C); experiment: as above; format: biochemical; conditions: read-out: KRAS G12C FRET IC50
In short: as §1

KRAS G12S = KRAS G12S (Homo sapiens (Human), UniProt P01116+P62937, G12S); experiment: as above; format: biochemical; conditions: read-out: KRAS G12S FRET IC50
In short: as §1

KRAS G13C = KRAS G13C (Homo sapiens (Human), UniProt P01116+P62937, G13C); experiment: as above; format: biochemical; conditions: read-out: KRAS G13C FRET IC50
In short: as §1

KRAS G12D = KRAS G12D (Homo sapiens (Human), UniProt P01116+P62937, G12D); experiment: as above; format: biochemical; conditions: read-out: KRAS G12D FRET IC50
In short: as §1

[1] = system: NCI-H358 cells (K-Ras G12C); experiment: CellTiter-Glo cell viability, NCI-H358; format: cell-based, human; conditions: K-Ras G12C, 5-day treatment, read-out: H358 Cell Viability IC50
Method: Note—The following protocol describes a procedure for monitoring cell viability of K-Ras mutant cancer cell lines in response to a compound of the invention. Other RAS isoforms may be employed, though the number of cells to be seeded will vary based on cell line used.
Test compounds (132.5 nl) were directly dispensed into the assay plates containing cells. […] On day 5, assay plates and their contents were equilibrated to room temperature for approximately 30 minutes. […] Luminescence was measured using the PerkinElmer Enspire. Data were normalized by the following: (Sample signal/Avg. DMSO)*100. The data were fit using a four-parameter logistic fit.

[2] = system: K-Ras G12C (NCI-H358 cells); experiment: Potency assay: pERK in NCI-H358 cells; format: cell-based, human; conditions: NCI-H358 cells, 4 hours, read-out: pERK EC50 (H358 KRAS G12C)
In short: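 Cells plated the day before were exposed for 4 h at 37° C, 5% CO2 to a 10-point, 3-fold DMSO dilution series (10 mM top stock), in duplicate. Phospho-ERK was read by AlphaLISA SureFire Ultra or by In-Cell Western with DRAQ5 DNA stain, and IC50 came from a 4-parameter sigmoidal fit.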

NCI-H358 (K-Ras G12C) = experiment: CellTiter-Glo cell viability assay, NCI-H358; format: cell-based, human; conditions: 5-day treatment, read-out: H358 Cell Viability assay data (K-Ras G12C, IC50)
In short: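 After direct compound addition, plates were incubated to day 5 and equilibrated at room temperature for about 30 minutes before CellTiter-Glo reading. Values derive from luminescence relative to the DMSO mean, fitted with a four-parameter logistic model.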

[3] = system: Capan-1 cells (K-Ras G12V); experiment: CellTiter-Glo cell viability, Capan-1; format: cell-based, human; conditions: Homo sapiens, CAPAN-1, 120 h, K-Ras G12V, 5-day treatment; read-out: Capan-1 Cell Viability IC50
In short: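 Endpoint: CellTiter-Glo luminescence on day 5, following ~30 min at room temperature. Data as (sample/mean DMSO)×100, four-parameter logistic fit.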

Sequence of NRAS G12C (P01111 whole entry G12C): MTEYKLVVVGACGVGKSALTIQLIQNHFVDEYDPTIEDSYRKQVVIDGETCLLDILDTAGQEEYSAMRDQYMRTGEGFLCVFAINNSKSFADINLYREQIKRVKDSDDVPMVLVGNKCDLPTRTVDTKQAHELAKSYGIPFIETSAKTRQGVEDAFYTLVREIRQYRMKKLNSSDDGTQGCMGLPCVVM
Sequence of NRAS G12C (P62937 whole entry): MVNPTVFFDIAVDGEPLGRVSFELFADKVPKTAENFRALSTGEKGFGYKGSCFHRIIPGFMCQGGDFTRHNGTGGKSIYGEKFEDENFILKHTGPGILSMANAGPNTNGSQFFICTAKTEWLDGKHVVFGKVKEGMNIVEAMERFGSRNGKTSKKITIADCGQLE

| Molecule | IC50 (KRAS WT) [nM] | IC50 (KRAS G12V) [nM] | IC50 (KRAS G13D) [nM] | IC50 (NRAS G12C) [nM] | IC50 (KRAS G12C) [nM] | IC50 (KRAS G12S) [nM] | IC50 (KRAS G13C) [nM] | IC50 (KRAS G12D) [nM] | IC50 ([1]; Homo sapiens, NCI-H358, 120 h) [nM] | EC50 [2] [nM] | IC50 [1] [nM] | IC50 (NCI-H358 (K-Ras G12C)) [nM] | EC50 ([2]; Homo sapiens) [nM] | IC50 (NCI-H358 (K-Ras G12C); Homo sapiens, NCI-H358, 120 h) [nM] | IC50 [3] [nM] |
| --- | --- | --- | --- | --- | --- | --- | --- | --- | --- | --- | --- | --- | --- | --- | --- |
| CCn1c(-c2cnccc2COC)c2c3cc(ccc31)-c1cc(O)cc(c1)C[C@H](NC(=O)[C@@H](OC(=O)N1CCCC1)C(C)C)C(=O)N1CCC[C@H](N1)C(=O)OCC(C)(C)C2 [Compound A59] | 1000 to 10000 | 1000 to 10000 | 1000 to 10000 | 1000 to 10000 | 1000 to 10000 | 1000 to 10000 | > 10000 | > 10000 | 1000 to 10000 |  |  |  |  |  |  |
| CCn1c(-c2cnccc2COC)c2c3cc(ccc31)-c1cc(O)cc(c1)C[C@H](NC(=O)[C@H](C(C)C)N(C)C(=O)CCCCN)C(=O)N1CCC[C@H](N1)C(=O)OCC(C)(C)C2 [Compound A66] | 100 to 1000 | 1000 to 10000 | 100 to 1000 | 100 to 1000 | 100 to 1000 | 100 to 1000 | 100 to 1000 | 100 to 1000 | 1000 to 10000 |  |  |  |  |  |  |
| (2S)—N-[(8S,14S)-22-ethyl-4-hydroxy-21-[4-(methoxymethyl)pyridin-3-yl]-18,18-dimethyl-9,15-dioxo-16-oxa-10,22,28-triazapentacyclo [18.5.2.1^2,6.1^10,14.0^23,27]nonacosa-1 (26),2,4,6 (29),20,23 (27),24-heptaen-8-yl]-2-{1-[(3S)-1-{2-[(3R)-3-hydroxypyrrolidin-1-yl]acetyl}pyrrolidin-3-yl]-N-methylformamido}-3-methylbutanamide [Compound A6] |  | 100 to 1000 |  |  | 10 to 100 | 10 to 100 | 100 to 1000 | 100 to 1000 |  | < 5000 | 1000 to 10000 | 100 to 1000 |  |  |  |
| CCn1c(-c2cnccc2COC)c2c3cc(ccc31)-c1cc(O)cc(c1)C[C@H](NC(=O)[C@H](C(C)C)N(C)C(=O)CN/C(N)=N/C#N)C(=O)N1CCC[C@H](N1)C(=O)OCC(C)(C)C2 [Compound A62] | 100 to 1000 | 100 to 1000 | 100 to 1000 | 100 to 1000 | 10 to 100 | 100 to 1000 | 100 to 1000 | 100 to 1000 | > 10000 |  |  |  |  |  |  |
| CCn1c(-c2cnccc2COC)c2c3cc(ccc31)-c1cc(O)cc(c1)C[C@H](NC(=O)[C@H](C(C)C)N(C)c1ncco1)C(=O)N1CCC[C@H](N1)C(=O)OCC(C)(C)C2 [Compound A52] | 1000 to 10000 | 1000 to 10000 | 1000 to 10000 | 1000 to 10000 | 100 to 1000 | 1000 to 10000 | 1000 to 10000 | > 10000 | 1000 to 10000 |  |  |  |  |  |  |
| CCn1c(-c2cccnc2COC)c2c3cc(ccc31)-c1cc(O)cc(c1)C[C@H](NC(=O)[C@H](C(C)C)N(C)C(C)=O)C(=O)N1CCC[C@H](N1)C(=O)OCC(C)(C)C2 [Compound A55] | 1000 to 10000 | 1000 to 10000 |  |  | 1000 to 10000 | 1000 to 10000 | 100 to 1000 | > 10000 | 1000 to 10000 |  |  |  | < 5000 |  |  |
| CCn1c(-c2cnccc2COC)c2c3cc(ccc31)-c1cc(O)cc(c1)C[C@H](NC(=O)[C@H](C(C)C)N(C)C(=O)[C@H]1CCN(C(=O)C(C)(C)N)C1)C(=O)N1CCC[C@H](N1)C(=O)OCC(C)(C)C2 [Compound A15] | 100 to 1000 | 100 to 1000 | 100 to 1000 | 100 to 1000 | 10 to 100 | 100 to 1000 | 100 to 1000 | 100 to 1000 | 1000 to 10000 |  |  |  |  |  |  |
| CCn1c(-c2ccccc2CCOC)c2c3cc(ccc31)-c1cc(O)cc(c1)C[C@H](NC(=O)[C@H](C(C)C)N(C)C(=O)CNC(=N)N)C(=O)N1CCC[C@H](N1)C(=O)OCC(C)(C)C2 [Compound A69] | 1000 to 10000 | 1000 to 10000 | 1000 to 10000 |  | 100 to 1000 | 100 to 1000 | 100 to 1000 | 1000 to 10000 | > 10000 |  |  |  | < 5000 | 10 to 100 |  |
| CCn1c(-c2cccnc2[C@H](C)OC)c2c3cc(ccc31)-c1cc(O)cc(c1)C[C@H](NC(=O)[C@H](C(C)C)N(C)C(=O)C1(F)CC1)C(=O)N1CCC[C@H](N1)C(=O)OCC(C)(C)C2 [Compound A165] | 10 to 100 |  | 10 to 100 | 10 to 100 | 10 to 100 | 10 to 100 | 10 to 100 | 100 to 1000 | 10 to 100 |  |  |  |  |  |  |
| CCn1c(-c2cccnc2[C@H](C)OC)c2c3cc(ccc31)-c1cc(O)cc(c1)C[C@H](NC(=O)[C@H](C(C)C)N(C)C(=O)[C@H]1C[C@@H]1O)C(=O)N1CCC[C@H](N1)C(=O)OCC(C)(C)C2 [Compound A323] |  | 10 to 100 | 10 to 100 | < 10 | < 10 | 10 to 100 |  |  | 100 to 1000 |  |  |  |  |  | 100 to 1000 |
| CCn1c(-c2cccnc2COC)c2c3cc(ccc31)-c1cc(O)cc(c1)C[C@H](NC(=O)[C@H](C(C)C)N(C)C(=O)c1ccc(NC(=O)/C=C/CN(C)C)cn1)C(=O)N1CCC[C@H](N1)C(=O)OCC(C)(C)C2 [Compound A67, (2E)-4-(dimethylamino)-N-(6-{[(1S)-1-{[(8S,14S)-22-ethyl-4-hydroxy-21-[2-(methoxymethyl)pyridin-3-yl]-18,18-dimethyl-9,15-dioxo-16-oxa-10,22,28-triazapentacyclo [18.5.2.1^2,6.1^10,14.0^23,27]nonacosa-1 (26),2,4,6 (29),20,23 (27),24-heptaen-8-yl]carbamoyl}-2-methylpropyl](methyl)carbamoyl}pyridin-3-yl) but-2-enamide] |  | 100 to 1000 |  |  | 10 to 100 | 100 to 1000 | 10 to 100 | 100 to 1000 |  | < 5000 | 1000 to 10000 | 100 to 1000 |  |  |  |
